Publication PMC4205289, “Triptolide inhibits human immunodeficiency virus type 1 replication by promoting proteasomal degradation of Tat protein” (Retrovirology, 2014)

What was measured:
HIV-1 NL4-3 = assay: Time-of-addition experiment in TZM-bl cells; assay type: cell-based
Protocol: TZM-bl cells seeded in 96-well plates (2 × 10^4 /well) were infected with HIV-1 NL4-3 (MOI = 1). The virus inoculum was removed after 1 h of infection. Test compounds were added at different time points after infection (0 h, 2 h, 4 h, 6 h, 8 h, and 10 h). Dextran sulfate was added at 10 μg/mL, zidovudine at 1 μM and triptolide at 5 nM. At 48 h post-infection, the virus replication level was determined by analyzing luciferase activity in the cells as described above.

FLAG-Tat = system: T1, FLAG-Tat; assay: Proteasome inhibition rescue of Tat expression, Western blot, HeLa cells; assay type: cell-based, HIV-1 NL4-3
T1 construct: expressed in transfected cells; host or cells: HeLa
Protocol: Figure 6 Triptolide reduces Tat protein stability by enhancing proteasomal degradation of Tat. (A) The effect of triptolide on Tat mRNA levels. HeLa cells were transfected with pEF1-Tat in the presence of increasing concentrations of triptolide. Cells were harvested 48 h post-transfection. The steady-state mRNA levels of Tat and GAPDH were examined using semi-quantitative reverse transcription PCR analysis. RT, reverse transcriptase. (B) The effect of triptolide on Tat protein degradation. HeLa cells were transfected with pEF1-FLAG-Tat in the presence of 5 nM triptolide or vehicle (DMSO). At 28 h post-transfection, cells were treated with 20 μg/mL of CHX to arrest protein synthesis. At 0, 1, 2, 3 h post-treatment, cells were harvested to determine protein expression levels using Western blot analysis. (C) The band intensities of FLAG-Tat in panel B were measured, and their natural log values were plotted as a function of time. Results were presented as the mean plus the standard deviations (n = 3). (D) Proteasome inhibition restores Tat protein expression. HeLa cells were transfected with pEF1-FLAG-Tat in the presence or absence of 5 nM triptolide. At 48 h post-transfection, cells were treated with 20 μM of MG132, and cultured for an additional 3 h before harvest. Protein expression levels were determined by Western blot analysis. TEXT PRINTED IN THE PICTURE: (C) DMSO: Half-lives: 2.0 h | (C) Triptolide: Half-lives: 0.4 h
Cells were washed with phosphate buffered saline (PBS) and lysed with radio immunoprecipitation assay lysis buffer supplemented with complete mini protease inhibitor cocktail (Roche) at 4°C for 1 h. Proteins from cell lysates were separated by SDS-PAGE and transferred to polyvinylidene difluoride membranes. After overnight incubation with primary antibodies at 4°C, each blot was probed with horseradish peroxidase-conjugated secondary antibody. Immunoreactive signals were detected with an enhanced chemiluminescence substrate (Thermo Scientific) using an AlphaEaseH FC Imaging System (Alpha Innotech Corporation).

[1] = system: HIV-1 molecular clone pNL4-3.Luc.R-E-; assay: Transient gene expression assay, pNL4-3.Luc.R-E- transfected into Jurkat cells; assay type: cell-based; conditions: 24 h, 118-D-24 50 μM, flavopiridol 20 nM, triptolide 0.2 ~ 5 nM
Protocol: Figure 3 Triptolide inhibits HIV-1 transcription. (A) Time-of-addition analysis. TZM-bl cells were infected with HIV-1 (MOI = 0.5, strain NL4-3), and the virus inoculum was removed after 1 h of absorption. Test compounds (dextran sulfate at 10 μg/mL, zidovudine at 1 μM and triptolide at 5 nM) were added at the indicated time points after infection. Reporter signal was monitored at 48 h post-infection as a measure of viral replication. (B) The effect of triptolide on HIV-1 proviral DNA formation. Jurkat cells were infected with HIV-1 (MOI = 0.5, strain NL4-3) in the presence of the test compounds (INI 118-D-24, 50 μM; flavopiridol, 20 nM; and triptolide, 5 nM). Proviral DNA synthesis was determined by nested PCR analysis at 12 h post-infection. (C) The effect of triptolide on HIV-1 mRNA synthesis. Jurkat cells were infected with HIV-1(MOI = 0.5, strain NL4-3) in the presence of the test compounds (INI 118-D-24, 50 μM; flavopiridol, 20 nM; triptolide, 5 nM). Viral mRNA (the Gag region) content was determined by reverse-transcription PCR analysis 12 h post-infection. (D) Inhibition of luciferase expression encoded in pNL4-3.Luc.R-E- by tiptolide. […]
To further confirm that triptolide interferes with HIV-1 transcription, a transient gene expression assay was performed. […] At 24 h after transfection, viral gene transcription (indicated by luciferase activity) was determined. […]

HIV-1 mRNA = assay: Reverse-transcription PCR of viral mRNA (Gag region) in infected Jurkat cells; assay type: cell-based; conditions: HIV-1 NL4-3 MOI 0.5, 12 h post-infection, 118-D-24 50 μM, flavopiridol 20 nM, triptolide 5 nM
Protocol: (§1) The effects of the test compounds on HIV-1 proviral DNA and mRNA synthesis were analyzed by PCR. Jurkat cells were grown in 24-well plates and infected with the HIV-1 NL4-3 strain at an MOI of 0.5, and then test compounds were added at the desired concentrations. After incubation for 12 h, genomic DNA and mRNA from the infected cells were isolated using a Genomic DNA Mini Preparation Kit (Beyotime, China) and TRIzol reagent (Invitrogen Life Technologies), respectively. Nested PCR was used for the amplification of integrated proviral DNA, as previously described. To determine viral mRNA expression levels, 1 μg of RNA was treated with RQ1 RNase-Free DNase (Promega) and reverse transcribed using M-MLV Reverse Transcriptase (Promega) and random primers (Promega). An aliquot of cDNA was used as template for amplification of the HIV-1 Gag region as described elsewhere. […]
(§2) All of the PCR products were visualized on a UV transilluminator in 2% agarose gels stained with ethidium bromide. In preliminary experiments, the exponential range of the PCR amplification curve was determined for all of the PCR products by varying the amount of input DNA and the number of PCR cycles. Based on these experiments, appropriate conditions were chosen to perform semi-quantitative PCRs.

HIV-1 proviral DNA = assay: Nested PCR of integrated proviral DNA in infected Jurkat cells; assay type: cell-based; conditions: HIV-1 NL4-3 MOI 0.5, 12 h post-infection, 118-D-24 50 μM, flavopiridol 20 nM, triptolide 5 nM
Protocol: as §1, §2

Dextran sulfate sodium salt was tested, and the time-of-addition inhibition profile (HIV-1 NL4-3; dextran sulfate at 10 μg/mL, luciferase at 48 h) was “dramatic early loss in activity”.

With MG132 the “increase of Tat level” value (FLAG-Tat; 20 μM MG132 for 3 h, without triptolide, relative to DMSO control) was 30% and the “restoration of Tat protein, increase as % of Tat level in DMSO control” value (FLAG-Tat; 20 μM MG132 for 3 h in the presence of 5 nM triptolide) was 30%.

In the case of `Cc1cn([C@H]2C[C@H](N=[N+]=[N-])[C@@H](CO)O2)c(=O)[nH]c1=O` [zidovudine], the inhibition at 1 µM (HIV-1 NL4-3; Human immunodeficiency virus 1, NL43, TZM-bl, read-out: inhibitory activity retained) is reported as 71%.

In the case of `CN1CC[C@H](c2c(O)cc(O)c3c(=O)cc(-c4ccccc4Cl)oc23)[C@H](O)C1` [flavopiridol, reference compound], the “effect on luciferase expression from transfected pNL4-3.Luc.R-E-” value [1] is reported as “significantly reduced luciferase expression”, the “effect on viral mRNA synthesis” value (HIV-1 mRNA) is reported as “repress viral mRNA synthesis” and the “effect on proviral DNA formation (integration)” value (HIV-1 proviral DNA) is reported as “no effect on virus integration”.
